Legend:
PHD3, HIF1α and HIF2α = test: Western blot of HIF target proteins in HeLa9XHRE-LUC cells; type: cell-based; design: dose or concentration left out as unconfirmed; settings: hypoxic conditions, 9 hours
Protocol: The HeLa9XHRE/LUC cells were lysed with a hypotonic buffer (10 mM Tris-HCl, pH 7.5, 1.5 mM MgCl2, I mM KCIO, 2 mM DTT, 1 mM Pefabloc, 2 mM sodium vanadate, 4 µg/ml pepstatin, 4 µg/ml leupeptin, and 4 µg/ml aprotinin), preserved 20 minutes in ice and subsequently centrifuged for 10 minutes at 1,200 rpm, collecting the supernatant and preserving it at -20°C until its use. The quantification of the proteins was performed with colorimetric Coomassie blue method described by Bradford. A commercial system was used following the manufacturer's instructions (PIERCE Chem Co., Rockford III. USA). Bovine serum albumin (A-7906, SIGMA Chem Co., St. Louis MO, USA) was used to generate a standard curve (0-200 µg of protein). Five microliters of each sample were pipetted in a 96-well plate and […] of the Coomassie solution were added and it was maintained in darkness for 5 minutes at room temperature and the absorbance at OD 595 nm was measured in a spectrophotometer. By means of the Graph-Pad statistical program, the standard line was calculated and the values were extrapolated for each of the samples. The final values were expressed as mcg/mcl of protein. The electrophoresis of proteins of the extract was carried out in polyacrylamide gels under denaturing conditions (SDS-PAGE). A commercial mixture of proteins for low molecular mass polypeptides (Amersham) was used as a molecular size standard. […]

epSPCs = test: proliferation (ATP, CellTiter-Glo) and neurosphere formation of epSPCs; type: cell-based, rat; settings: for rates of proliferation (ATP): 500 nM
Protocol: The accumulation of ATP, a metabolite directly related to the increase of metabolic activity and therefore with the proliferative activity, was determined with the commercial CellTiter-Glo® luminescent cell viability kit (Promega, Madison, WI).

mTOR = test: activation kinetics of mTOR signaling pathway, HCT116/p53-/-; type: cell-based, human; settings: 0.5 µM
Protocol: Due to the crucial role of p53 as a tumor-suppressing agent, it was analyzed in HCT116 cells how FM19G11 affected the activation kinetics of proteins involved in favoring cell cycle progress, specifically the mTOR cell signaling pathway. An increase of cell progress can be due to replicative stress which generates DNA damage (Bartkova, J, Horejsi, Z, Koed, K, Kramer, A, Tort, F, Zieger, K et al., (2005) DNA damage response as a candidate anti-cancer barrier in early human tumorigenesis. Nature 434: 864-70; Bartkova, J, Rezaei, N, Liontos, M, Karakaidos, P, Kletsas, D, Issaeva, N et al., (2006) Oncogene-induced senescence is part of the tumorigenesis barrier imposed by DNA damage checkpoints. Nature 444: 633-7; Di Micco, R, Fumagalli, M, Cicalese, A, Piccinin, S, Gasparini, P, Luise, C et al., (2006) Oncogene-induced senescence is a DNA damage response triggered by DNA hyper-replication. Nature 444: 638-42), it was explored if the DDR triggered by FM19G11 was related to an increase of the cell cycle progress signal modulated by the mTOR signaling pathway. […]

HCT116/p53-/- cells = test: cell viability by ATP quantification in colon cancer cells; type: cell-based, human; settings: 48 hours, 0.5-1000 µM
Protocol: To determine the effects of FM19G11 on human colon cancer cells (HCT116 and HT29), cell viability assays were carried out in HT29, HCT116/p53^+/+ and HCT116/p53^-/- cells by means of quantifying the ATP which associates with metabolically active cells.

[1] = system: mouse neurospheres (neural stem cells); test: microsatellite genomic instability in neurospheres; type: cell-based
Protocol: By using specific fluorescence-labeled primers for microsatellite sequence markers, the genomic stability of neurospheres in normoxia (Nx), hypoxia (Hx) or hypoxia+FM19G11 (Hx+19G11) was analyzed. […] The treatment with FM19G11 enabled the recovery of the normoxia profiles (used as a reference or control), thus preventing the genomic instability caused by hypoxia.

With `Cc1ccc(C(=O)COC(=O)c2cccc(NC(=O)c3ccc([N+](=O)[O-])cc3[N+](=O)[O-])c2)cc1` [FM19G11, 2-oxo-2-(p-tolyl)ethyl 3-((2,4-dinitro)benzamido)benzoate] as the compound, how does the “expression of HIF 1α and 2α, as well as of PHD3” value (PHD3, HIF1α and HIF2α) read?
Its value is “decrease”.

What about the “rates of proliferation (ATP)” value (epSPCs; 48 hours, ~20% O2) of the same compound?
The value was “increases the rates of proliferation”.

And the “rates of proliferation (ATP)” value (epSPCs; hypoxic conditions (1% O2))?
The value was “not reproduced”.

And the formation of neurospheres (epSPCs; normoxic conditions (20% O2))?
Its formation of neurospheres is “favors the formation of neurospheres”.

And the “mTOR phosphorylation (fold change)” value (mTOR)?
The value was at most 2.

What about the “sensitivity (cell viability, ATP) compared to HCT116/p53+/+ or HT29” value (HCT116/p53-/- cells) of the same compound?
The value was “less sensitive”.

What about the “genomic instability caused by hypoxia (microsatellite markers mBAT59, mBAT67)” value [1] of the same compound?
Its value is “prevented”.

From patent EP2292587A1, “PHARMACEUTICAL COMPOSITION FOR INHIBITING THE TRANSCRIPTION FACTOR INDUCIBLE BY HYPOXIA, MODULATORS OF PATHOLOGICAL PROCESSES OF ANGIOGENESIS, ONCOGENESIS, INFLAMMATION, APOPTOSIS, AND CELLULAR THERAPY” (Fundacion De La Comunidad Valenciana Centro De …, priority 2008, dated 2009)
